From US20110097274A1, “Carbon-11 and fluorine-18 labeled radioligands for positron emission tomography (PET) imaging for the brain serotonin transporters” (priority 2002, published 2011)
Read-outs that look alike come from different tables or passages of the source.

What was measured:
[1] = Baboon PET study: plasma analysis / input function of parent compound; format: in vivo; settings: baboons; for Vbol (initial distribution volume of parent compound) / Clearance of parent compound: i.v.; for Vbol (initial distribution volume of parent compound) / Clearance / Clearance of parent compound: mean ± SD of four experiments; for Clearance: male, monkey, arterial plasma, iv
Description: (§1) PET imaging protocol: PET experiments (n=20) were performed at Columbia University. Two adult male baboons (baboon A and B) were studied twice with each of the 5 radioligands (4 experiments per radioligand). All experiments took place within a 9-month period. Baboons A and B were 31 kg and 21 kg in weight at the beginning of the experimental period and 28 and 22 kg at the end, respectively.
Experiments were performed according to protocols approved by the Columbia-Presbyterian Medical Center Institutional Animal Care and Use Committee. […] Vital signs were monitored every 10 minutes and the temperature was kept constant at 37° C. with heated water blankets. An i.v. perfusion line was used for hydration and injection of radioligands and nonradioactive drugs. A catheter was inserted in a femoral artery for arterial blood sampling. Head was positioned at the center of the field of view as defined by imbedded laser lines. PET imaging was performed with the ECAT EXACT HR+PET scanner (Siemens/CTI, Knoxville, Tenn.). […] A 15 minute transmission scan was obtained prior to radioligand injection for attenuation correction. Activity was injected i.v. over 30 seconds.
Input function measurements: Arterial samples were collected every 5 seconds with an automated system for the first two minutes and manually thereafter at various intervals. A total of 28 samples were collected.
Selected plasma samples (n=6 per study, collected at 2, 4, 12, 30, 60 and 90 minutes after radioligand administration) were further processed by extraction with methanol (MeOH) followed by HPLC analysis to measure the fraction of plasma activity representing unmetabolized parent compound. The parent fraction was measured as follows: plasma (0.5 mL) was pipetted into a centrifuge tube containing MeOH (1.0 mL). […] The liquid phase was separated from the precipitate. Activity in 0.1 mL of the liquid phase was counted and the rest was injected onto the HPLC. The HPLC eluate was fraction-collected in 6 counting tubes (4.0 mL each). The HPLC system consisted of a Waters 510 isocratic pump, a Rheodyne injector equipped with a 2 mL sample loop, a C18 analytical column (Phenomenex ODS-prep, 10 μm, 4.6×250 mm), a Bioscan Flow Cell gamma detector (Bioscan, Washington, D.C.), and a fraction collector. The column was eluted with a mixture of acetonitrile and aqueous 0.1 M ammonium formate (proportion depending on the tracer being analyzed) at a flow rate of 2 mL/minute. Before plasma sample analysis, the retention time of the parent tracer was established by injection of a few μCi of the tracer and detection of the peak using the Bioscan gamma detector.
The parent fraction was calculated as the ratio of activity in the fractions containing the parent to that of the total activity collected. A biexponential function was fitted to the six measured parent fractions, and used to interpolate values between and after the measurements. […] The input function was then calculated as the product of total counts and interpolated fraction parent at each time point. The measured input function values were fitted to a sum of three exponentials, and the fitted values were used as input for the kinetic analyses. […] The initial distribution volume (Vbol, L) was calculated as the ratio of injected dose to peak plasma concentration.

[2] = Plasma free fraction (f1) and filter retention by ultrafiltration; format: in vitro ADME, baboon; settings: mean ± SD of four experiments; for Filter retention: activity remaining on filter, radioligand dissolved in saline; for fraction unbound at 20 min: monkey
Description: Plasma and ultrafiltrate activities were counted, and f1 was calculated as the ratio of ultrafiltrate activity to total plasma activity. Triplicate aliquots of the radioligand in pH 7.4 Tris buffer were also processed to determine the filter retention of free tracer.

[3] = Baboon PET imaging: brain uptake, kinetic analysis and SERT parameters; format: in vivo; settings: male, baboon, intravenous, baboons
Description: as §1, with “respectively. Test and retest experiments with the same radioligand were obtained on different days, with an average interval of 117±53 days.” for “respectively.”
Experiments were performed according to protocols approved by the Columbia-Presbyterian Medical Center Institutional Animal Care and Use Committee. Fasted animals were immobilized with ketamine (10 mg/kg i.m.), and anesthetized with 1.8% isoflurane via an endotracheal tube. Vital signs were monitored every 10 minutes and the temperature was kept constant at 37° C. with heated water blankets. An i.v. perfusion line was used for hydration and injection of radioligands and nonradioactive drugs. A catheter was inserted in a femoral artery for arterial blood sampling. Head was positioned at the center of the field of view as defined by imbedded laser lines. PET imaging was performed with the ECAT EXACT HR+PET scanner (Siemens/CTI, Knoxville, Tenn.). In 3D mode, this camera provides an in-plane resolution of 4.3 mm, 4.5 mm, 5.4 mm and 8.0 mm full width at half maximum (FWHM) at a distance of 0, 1, 10 and 20 cm from the center of the field of view, respectively (Brix et al., 1997). A 15 minute transmission scan was obtained prior to radioligand injection for attenuation correction. Activity was injected i.v. over 30 seconds. […] Emission data was collected in the 3D mode for 91 minutes as 21 successive frames of increasing duration (6*10 seconds, 2*1 minutes, 4*2 minutes, 2*5 minutes, and 7*10 minutes).
Image analysis: A Magnetic Resonance Image (MRI) of each baboon's brain was obtained for the purpose of identifying the regions of interest (ROI) (T1-weighted axial MRI sequence, acquired parallel to the anterior-posterior commissure, TR 34 msec, TE 5 msec, flip angle of 45 degrees, slice thickness is 1.5 mm, zero gap, matrix 1.5 mm×1 mm×1 mm voxels). The following regions were drawn on the MR images: cerebellum, midbrain, thalamus, striatum, hippocampus, temporal cortex, cingulate cortex and occipital cortex.
PET emission data were attenuation-corrected using the transmission scan, and frames were reconstructed using a Shepp filter (cutoff 0.5 cycles/projection rays). Reconstructed image files were then processed using the image analysis software MEDx (Sensor Systems, Inc., Sterling, Va.). An image was created by summing all the frames, and this summed image was used to define the registration parameters with the MR image, using between-modality automated image registration (AIR) algorithm (Woods et al., 1993). Registration parameters were then applied to the individual frames for registration to the MR data set. Regional boundaries were transferred to the individual registered PET frames, and time-activity curves were measured and decay-corrected. Right and left regions were averaged. For a given animal, the same regions were used for all radioligands.
Brain uptake: Total brain uptake was expressed as percentage of the injected dose per gram of tissue (% ID g^−1) in a region encompassing the entire brain. Regional peak time was defined as the mid-time of the frame associated with the highest activity value. To estimate the degree of wash-out from the brain captured during the scan interval (91 minutes), the decrease in activity from the peak frame to the last frame was calculated and expressed in percentage of the peak activity.
Kinetic analysis: Regional total distribution volumes (VT, mL g^−1) were derived with kinetic analysis of the regional time-activity curves, using the arterial plasma concentrations as input function. […]

[4] = male, baboon plasma, ultrafiltration
[5] = brain regions (average of all regions), read-out: VT, average of all regions and all animals
[6] = cerebellum, one-tissue compartment model, mean ± SD of four experiments, read-out: VT Cerebellum (VT CER, nonspecific distribution volume)

Row | Compound | Parent fraction in plasma at 30 minutes [1] [%] | Vbol (initial distribution volume of parent compound) [1] [L] | Clearance [1] [mL/min] | Filter retention [2] [%] | fraction unbound at 20 minutes [2, 4] | fraction unbound ([3]; brain nonspecific distribution volume (cerebellum), calculated from f1 and cerebellar VT, read-out: f2 (free fraction in the nonspecific distribution volume)) | Kp [3, 5] | Kp [3, 6] | fraction unbound at 20 min [2, 4] | Clearance of parent compound [1] [L/h] | f1 (plasma free fraction) ([2]; baboon plasma, ultrafiltration) [%]
1 | CN(C)Cc1ccccc1Sc1ccc(C#N)cc1N [[^11C]DASB] | 20±1 | 12.6 ± 2.2 | 1400 | 19.2 ± 4.7 | 0.135 ± 0.017 | 0.0077 ± 0.0008 | 29.2 ± 11.5 | 17.3 ± 0.5 |  |  | 
2 | CN(C)Cc1ccccc1Sc1ccc(Br)cc1N [[^11C]DAPA] |  | 8.5 ± 1.8 | 967 | 77.9 ± 6.6 |  |  | 47.8 ± 16 | 29.3 ± 2.9 | 0.018 ± 0.005 |  | 
3 | CN([11CH3])Cc1ccccc1Sc1ccc(CF)cc1N [[^11C]AFM, [^11C]2-[2-(Dimethylaminomethyl)phenylthio]-5-fluoromethylphenylamine] |  | 17.6 ± 1.3 |  | 19.3 ± 4.1 |  |  |  |  |  | 90 ± 46 | 9.6 ± 0.5
4 | [11CH3]Sc1ccc([C@H]2CN3CCC[C@H]3c3ccccc32)cc1 [[^11C]McN 5652] | 28±13 | 5.9 ± 1.8 |  |  |  |  |  |  |  | 58 ± 13 | 
5 | CN(C)Cc1ccccc1Sc1ccc(I)cc1N [[^11C]ADAM] |  | 8.1 ± 3.1 | 1120 | 88.2 ± 5.2 |  |  | 42.8 ± 12.9 | 28.5 ± 4.8 | 0.009 ± 0.007 |  | 
